The values that follow come from patent US12516056B2, “Compounds for inhibition of janus kinase 1” (MANKIND PHARMA LTD., priority 2019, dated 2026).

One experiment has as its target T1, Recombinant JAK1 (Homo sapiens, UniProt P23458).
T1 construct: purchased Carna Biosciences
The experiment can be described thus: JAK biochemical assay (LANCE Ultra TR-FRET), JAK1. The note with it: recombinant JAK1, TR-FRET; read-out: Biochemical Assay (μM) JAK1. A digest of the protocol:
(§1)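 % inhibition relative to vehicle was derived from TR-FRET signal proportional to ULight-substrate phosphorylation. Reactions used recombinant kinase in HEPES pH 7.5 buffer containing EGTA, MgCl2, DTT and Tween-20.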

A further experiment addresses T2, Recombinant JAK2 (Homo sapiens, UniProt O60674).
T2 construct: purchased Carna Biosciences
Kind of experiment: JAK biochemical assay (LANCE Ultra TR-FRET), JAK2. As to conditions: recombinant JAK2, TR-FRET; read-out: Biochemical Assay (μM) JAK2. In a few lines:
as §1

The target of the next experiment is T3, Recombinant JAK3 (Homo sapiens, UniProt P52333).
T3 construct: purchased Carna Biosciences
T3 sequence (P52333 1-1124): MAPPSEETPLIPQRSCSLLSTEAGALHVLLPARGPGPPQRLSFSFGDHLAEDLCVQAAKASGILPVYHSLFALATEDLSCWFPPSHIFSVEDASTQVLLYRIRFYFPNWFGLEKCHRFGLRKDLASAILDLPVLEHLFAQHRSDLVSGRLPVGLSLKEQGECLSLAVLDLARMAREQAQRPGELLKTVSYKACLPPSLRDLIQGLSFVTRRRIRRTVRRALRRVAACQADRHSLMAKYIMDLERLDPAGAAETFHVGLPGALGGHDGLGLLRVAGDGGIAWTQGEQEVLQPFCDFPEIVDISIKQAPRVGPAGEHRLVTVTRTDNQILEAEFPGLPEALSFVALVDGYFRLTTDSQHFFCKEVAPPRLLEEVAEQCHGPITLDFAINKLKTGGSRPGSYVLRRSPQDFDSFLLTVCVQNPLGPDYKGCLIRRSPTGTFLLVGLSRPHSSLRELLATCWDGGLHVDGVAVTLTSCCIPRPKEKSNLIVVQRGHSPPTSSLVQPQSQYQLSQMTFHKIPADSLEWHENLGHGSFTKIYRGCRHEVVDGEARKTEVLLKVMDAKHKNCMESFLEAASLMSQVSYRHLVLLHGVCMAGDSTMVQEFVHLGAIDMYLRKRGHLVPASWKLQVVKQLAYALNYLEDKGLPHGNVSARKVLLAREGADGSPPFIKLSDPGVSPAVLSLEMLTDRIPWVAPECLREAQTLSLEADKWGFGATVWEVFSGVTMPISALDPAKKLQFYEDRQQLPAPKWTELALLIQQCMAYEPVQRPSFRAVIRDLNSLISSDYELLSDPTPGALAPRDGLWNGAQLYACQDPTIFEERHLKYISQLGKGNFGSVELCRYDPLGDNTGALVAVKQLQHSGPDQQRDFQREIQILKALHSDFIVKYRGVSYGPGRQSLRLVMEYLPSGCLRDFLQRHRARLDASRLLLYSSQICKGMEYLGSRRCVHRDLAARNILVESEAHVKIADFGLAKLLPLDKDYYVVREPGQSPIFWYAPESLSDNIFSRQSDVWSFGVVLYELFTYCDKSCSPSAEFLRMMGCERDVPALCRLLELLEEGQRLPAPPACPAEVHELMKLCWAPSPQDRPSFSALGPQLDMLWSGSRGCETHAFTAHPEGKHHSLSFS
The experiment can be described thus: JAK biochemical assay (LANCE Ultra TR-FRET), JAK3. The note with it: recombinant JAK3, TR-FRET; read-out: Biochemical Assay (μM) JAK3. A digest of the protocol: as §1

In a further experiment the target is T4, Recombinant TYK2 (Homo sapiens, UniProt P29597).
T4 construct: purchased Carna Biosciences
The experiment can be described thus: JAK biochemical assay (LANCE Ultra TR-FRET), TYK2. The note with it: recombinant TYK2, TR-FRET; read-out: Biochemical Assay (μM) TYK2. In a few lines: as §1

The subject of experiment [1] is STAT3 phosphorylation by IL-6 in TF-1 cells. The experiment can be described thus: JAK cellular assay: STAT3 phosphorylation by IL-6 in TF-1 cells (HTRF). Format: cell-based. The note with it: Homo sapiens, TF-1, TF-1 cells, IL-6 30 ng/ml, pSTAT3 HTRF; read-out: Cell Based Assay (μM) TF-1/IL-6/pSTAT3. As to the method:
(§2) TF-1 cells were starved overnight in OptiMEM medium with 0.5% charcoal stripped fetal bovine serum, 0.1 mM nonessential amino acids (NEAA), 1 mM sodium pyruvate and without phenol red in CO2 incubator maintained at 37° c. Next day, cells were resuspended in RPMI without phenol red and dispensed into a 96 well plate at a final cell density of 1,20,000 cells per well. Compounds were diluted in DMSO and added to cells and incubated for 30 minutes in CO2 incubator maintained at 37° c. Final DMSO concentration in cell based assay was 0.2%. Human recombinant cytokines, IL-6 (30 ng/ml) and GMCSF (5 ng/ml) were added to the plate containing cells along with compound and incubated for 20 minutes with gentle tapping at every 5 minutes once. Compound mediated effects on STAT3 and STAT5 phosphorylation was measured in the lysates prepared by using CISBIO pSTAT3 and pSTAT5 detection kits by HTRF method. Background signal obtained from cells which were not activated with cytokines, was subtracted from vehicle controls and compound treated wells.

Experiment [2] concerns STAT5 phosphorylation by GMCSF in TF-1 cells. The experiment can be described thus: JAK cellular assay: STAT5 phosphorylation by GMCSF in TF-1 cells (HTRF). Format: cell-based. As to conditions: Homo sapiens; TF-1 cells, GMCSF 5 ng/ml, pSTAT5 HTRF; read-out: Cell Based Assay (μM) TF-1/GMCSF/pSTAT5. On the procedure:
as §2

T2 sequence (O60674 whole entry): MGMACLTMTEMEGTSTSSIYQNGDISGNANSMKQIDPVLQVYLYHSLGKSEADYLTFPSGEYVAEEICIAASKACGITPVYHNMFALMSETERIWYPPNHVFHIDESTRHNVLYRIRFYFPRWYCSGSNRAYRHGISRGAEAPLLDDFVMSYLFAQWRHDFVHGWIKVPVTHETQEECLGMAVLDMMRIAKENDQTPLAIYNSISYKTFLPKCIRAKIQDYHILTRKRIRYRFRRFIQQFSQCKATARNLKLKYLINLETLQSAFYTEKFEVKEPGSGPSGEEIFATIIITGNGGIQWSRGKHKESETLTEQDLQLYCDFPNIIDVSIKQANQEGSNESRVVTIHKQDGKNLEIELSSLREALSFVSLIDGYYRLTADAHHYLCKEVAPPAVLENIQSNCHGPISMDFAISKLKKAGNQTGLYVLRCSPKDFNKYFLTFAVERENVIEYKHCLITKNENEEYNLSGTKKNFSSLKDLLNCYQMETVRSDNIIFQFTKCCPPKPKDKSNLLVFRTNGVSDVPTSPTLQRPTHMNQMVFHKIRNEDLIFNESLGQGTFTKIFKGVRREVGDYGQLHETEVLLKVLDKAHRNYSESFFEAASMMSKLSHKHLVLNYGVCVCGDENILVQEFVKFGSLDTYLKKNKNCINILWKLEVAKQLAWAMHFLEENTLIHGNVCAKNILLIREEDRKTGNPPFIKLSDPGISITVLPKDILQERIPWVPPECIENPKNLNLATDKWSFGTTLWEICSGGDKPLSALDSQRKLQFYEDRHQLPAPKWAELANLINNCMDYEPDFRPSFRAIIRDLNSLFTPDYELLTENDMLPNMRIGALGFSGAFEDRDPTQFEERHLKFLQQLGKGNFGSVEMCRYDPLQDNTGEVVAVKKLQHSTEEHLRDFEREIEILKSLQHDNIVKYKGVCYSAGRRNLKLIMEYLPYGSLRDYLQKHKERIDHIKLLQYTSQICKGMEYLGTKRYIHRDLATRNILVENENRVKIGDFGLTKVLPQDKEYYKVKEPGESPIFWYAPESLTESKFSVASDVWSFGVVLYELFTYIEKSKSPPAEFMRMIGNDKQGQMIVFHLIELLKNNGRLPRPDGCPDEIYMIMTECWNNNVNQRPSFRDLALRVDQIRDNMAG
T4 sequence (P29597 whole entry): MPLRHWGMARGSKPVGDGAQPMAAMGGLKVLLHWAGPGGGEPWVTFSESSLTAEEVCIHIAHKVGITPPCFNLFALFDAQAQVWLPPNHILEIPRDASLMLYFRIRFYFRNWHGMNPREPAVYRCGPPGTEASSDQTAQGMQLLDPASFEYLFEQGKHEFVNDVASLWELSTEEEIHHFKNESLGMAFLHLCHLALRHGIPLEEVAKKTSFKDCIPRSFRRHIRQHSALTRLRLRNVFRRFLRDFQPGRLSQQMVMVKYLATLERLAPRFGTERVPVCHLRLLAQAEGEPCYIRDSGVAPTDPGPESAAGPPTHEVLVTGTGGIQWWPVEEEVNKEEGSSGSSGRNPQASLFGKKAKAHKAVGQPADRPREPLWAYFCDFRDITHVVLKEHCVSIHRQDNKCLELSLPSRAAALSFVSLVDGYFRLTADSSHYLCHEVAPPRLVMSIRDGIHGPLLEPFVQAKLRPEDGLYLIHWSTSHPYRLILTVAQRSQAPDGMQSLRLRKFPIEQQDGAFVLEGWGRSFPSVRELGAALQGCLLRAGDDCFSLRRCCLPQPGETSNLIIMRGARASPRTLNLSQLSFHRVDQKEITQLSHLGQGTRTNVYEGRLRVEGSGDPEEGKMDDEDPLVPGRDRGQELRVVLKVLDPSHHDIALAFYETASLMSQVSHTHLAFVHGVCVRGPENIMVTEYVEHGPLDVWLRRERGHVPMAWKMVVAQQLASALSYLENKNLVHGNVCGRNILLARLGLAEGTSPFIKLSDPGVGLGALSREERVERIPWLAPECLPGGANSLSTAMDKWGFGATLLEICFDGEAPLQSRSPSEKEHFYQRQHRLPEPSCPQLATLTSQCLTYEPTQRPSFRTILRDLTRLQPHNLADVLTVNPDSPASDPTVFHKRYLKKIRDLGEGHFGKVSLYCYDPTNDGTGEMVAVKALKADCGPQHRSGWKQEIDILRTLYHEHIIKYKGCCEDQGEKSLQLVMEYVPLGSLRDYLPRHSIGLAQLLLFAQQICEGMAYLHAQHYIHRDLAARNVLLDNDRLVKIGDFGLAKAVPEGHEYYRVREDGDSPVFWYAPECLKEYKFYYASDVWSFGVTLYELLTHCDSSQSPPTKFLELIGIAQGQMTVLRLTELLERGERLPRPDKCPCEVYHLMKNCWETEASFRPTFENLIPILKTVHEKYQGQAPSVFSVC
T1 sequence (P23458 whole entry): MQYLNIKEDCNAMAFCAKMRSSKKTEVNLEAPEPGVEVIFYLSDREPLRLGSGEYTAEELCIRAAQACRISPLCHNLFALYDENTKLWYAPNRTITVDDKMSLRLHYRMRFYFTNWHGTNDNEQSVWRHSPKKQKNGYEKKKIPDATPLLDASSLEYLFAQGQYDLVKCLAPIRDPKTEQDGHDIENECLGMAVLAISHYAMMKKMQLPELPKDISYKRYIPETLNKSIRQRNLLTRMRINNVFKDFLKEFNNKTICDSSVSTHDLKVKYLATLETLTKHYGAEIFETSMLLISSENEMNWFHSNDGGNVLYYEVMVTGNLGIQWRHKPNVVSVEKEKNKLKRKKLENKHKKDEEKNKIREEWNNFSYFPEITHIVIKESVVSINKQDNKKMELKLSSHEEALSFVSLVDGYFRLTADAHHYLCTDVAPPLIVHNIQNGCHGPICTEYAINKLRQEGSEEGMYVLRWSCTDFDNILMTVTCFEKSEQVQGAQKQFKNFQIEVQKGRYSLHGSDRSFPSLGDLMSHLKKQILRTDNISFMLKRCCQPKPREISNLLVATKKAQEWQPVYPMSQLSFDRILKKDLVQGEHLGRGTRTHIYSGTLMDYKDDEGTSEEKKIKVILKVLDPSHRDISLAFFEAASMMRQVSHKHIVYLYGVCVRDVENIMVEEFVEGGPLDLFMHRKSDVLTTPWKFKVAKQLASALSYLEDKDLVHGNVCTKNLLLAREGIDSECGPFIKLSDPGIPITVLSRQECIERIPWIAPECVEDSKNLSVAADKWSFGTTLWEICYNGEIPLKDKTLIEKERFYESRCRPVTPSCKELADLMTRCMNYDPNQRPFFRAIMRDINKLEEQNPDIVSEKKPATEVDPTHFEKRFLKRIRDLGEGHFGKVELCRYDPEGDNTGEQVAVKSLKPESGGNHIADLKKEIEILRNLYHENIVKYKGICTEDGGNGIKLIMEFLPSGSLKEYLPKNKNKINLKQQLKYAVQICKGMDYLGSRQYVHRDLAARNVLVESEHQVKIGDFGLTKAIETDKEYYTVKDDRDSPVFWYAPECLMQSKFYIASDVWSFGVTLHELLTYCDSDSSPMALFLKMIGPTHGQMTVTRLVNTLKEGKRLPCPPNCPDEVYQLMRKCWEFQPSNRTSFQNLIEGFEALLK

As to `COC(c1cccc(-n2cc(-c3ccnc4[nH]cnc34)cn2)n1)C(F)(F)F` (centres unmarked) [Example 1171, 7-(1-(6-(2,2,2-trifluoro-1-methoxyethyl)pyridin-2-yl)-1H-pyrazol-4-yl)-3H-imidazo[4,5-b]pyridine], the IC50 is over 1 µM at Recombinant JAK1; over 1 µM at Recombinant JAK2; over 1 µM on Recombinant JAK3; over 1 µM at Recombinant TYK2; over 10 µM in experiment [1]; over 10 µM in experiment [2].

`OC(c1ccc(-n2cc(-c3ccnc4[nH]cnc34)cn2)cn1)C(F)(F)F` (centres unmarked) [Example 1173, 1-(5-(4-(3H-imidazo[4,5-b]pyridin-7-yl)-1H-pyrazol-1-yl)pyridin-2-yl)-2,2,2-trifluoroethanol]: the IC50 at Recombinant JAK1 is under 0.1 µM; on Recombinant JAK2 it was under 0.1 µM; at Recombinant JAK3, under 0.1 µM; at Recombinant TYK2, over 1 µM; in experiment [1], 10 µM; in experiment [2], over 10 µM.

With `CC(NC(=O)n1cc(-c2ccnc3[nH]c(=O)[nH]c23)cn1)C(=O)N1CC(C#N)C1` (centres unmarked) [Example 1058, N-(1-(3-cyanoazetidin-1-yl)-1-oxopropan-2-yl)-4-(2-oxo-2,3-dihydro-1H-imidazo[4,5-b]pyridin-7-yl)-1H-pyrazole-1-carboxamide], the IC50 is over 1 µM at Recombinant JAK1; over 1 µM at Recombinant JAK2; over 10 µM at Recombinant JAK3; over 10 µM on Recombinant TYK2; over 10 µM in experiment [1]; over 10 µM in experiment [2].

For the compound `CC(CN1CC(C#N)C1)NC(=O)n1cc(-c2ccnc3[nH]cnc23)cn1` (centres unmarked) [Example 1068, N-(1-(3-cyanoazetidin-1-yl)propan-2-yl)-4-(3H-imidazo[4,5-b]pyridin-7-yl)-1H-pyrazole-1-carboxamide], the IC50 at Recombinant JAK1 was over 1 µM; at Recombinant JAK2, over 1 µM; at Recombinant JAK3 it was over 1 µM; on Recombinant TYK2, over 1 µM; in experiment [1], over 10 µM; in experiment [2] it was over 10 µM.

For `FC(F)(F)C(Cl)c1ccc(-n2cc(-c3ccnc4[nH]cnc34)cn2)nc1` (centres unmarked) [Example 1120, 7-(1-(5-(1-chloro-2,2,2-trifluoroethyl)pyridin-2-yl)-1H-pyrazol-4-yl)-3H-imidazo[4,5-b]pyridine], the IC50 was over 0.05 µM at Recombinant JAK1; over 0.1 µM at Recombinant JAK2; over 0.1 µM at Recombinant JAK3; over 1 µM at Recombinant TYK2; over 1 µM in experiment [1]; over 10 µM in experiment [2].

`N#CCC(=O)Nc1ccc(-n2cc(-c3ccnc4[nH]cnc34)cn2)cc1` [Example 1102, N-(4-(4-(3H-imidazo[4,5-b]pyridin-7-yl)-1H-pyrazol-1-yl)phenyl)-2-cyanoacetamide]: the IC50 at Recombinant JAK1 was under 0.5 µM; on Recombinant JAK2, over 0.5 µM; on Recombinant JAK3, over 0.5 µM; on Recombinant TYK2, over 1 µM; in experiment [1], over 10 µM; in experiment [2], over 10 µM.

`N#CCC(NC(=O)n1cc(-c2ccnc3[nH]c(=O)[nH]c23)cn1)C(F)(F)F` (centres unmarked) [Example 1050, N-(3-cyano-1,1,1-trifluoropropan-2-yl)-4-(2,3-dihydro-2-oxo-1H-imidazo[4,5-b]pyridin-7-yl)-1H-pyrazole-1-carboxamide]: the IC50 was under 0.5 µM at Recombinant JAK1; under 0.5 µM on Recombinant JAK2; under 0.5 µM at Recombinant JAK3; under 0.5 µM on Recombinant TYK2; under 10 µM in experiment [1]; over 10 µM in experiment [2].

With `CS(=O)(=O)CCC(C#N)NC(=O)n1cc(-c2ccnc3[nH]cnc23)cn1` (centres unmarked) [Example 1072, N-(1-cyano-3-(methylsulfonyl)propyl)-4-(3H-imidazo[4,5-b]pyridin-7-yl)-1H-pyrazole-1-carboxamide], the IC50 at Recombinant JAK1 is over 0.5 µM; at Recombinant JAK2, over 0.5 µM; on Recombinant JAK3, over 0.5 µM; in experiment [1], over 10 µM; in experiment [2], over 10 µM.
